In patent US11679104B2, “Compositions and methods of enhancing the homing and/or engraftment of hematopoietic cells in the central nervous system” (Duke University, priority 2017, dated 2023):
Entries after “also recorded” stand apart in the source; their conditions may differ.

Tested on: microglia
Assay: BMT with UBC-GFP bone marrow followed by PLX5622 chow: beMφ engraftment into the brain
Assay type: in vivo, mice
Conditions: for GFP+ beMφ engraftment in the brain: 1 week recovery, 6 weeks standard chow
Text: Mice were γ-irradiated with a lethal dose of 1000 rad. Four hours post irradiation, mice were intravenously injected with 5×10^6 bone marrow cells. Mice were given water supplemented with trimethoprim-sulfamethoxazole for two weeks and monitored daily for the first 4 days. A lead shield was placed over the head during irradiation in some experiments, as indicated.
To determine transcriptional and morphological changes of microglia and beMφ to an insult, mice were given a peripheral LPS challenge. Mice were first irradiated and given BMT with UBC-GFP bone marrow. To target microglia, head shielding was applied during irradiation in some mice. After 1 week of recovery, mice were treated with PLX 5622 for 2 weeks to deplete the brain macrophage niche then placed on standard chow for 6 weeks. Mice were injected with 50 μg LPS or saline (i.p.). 6 hours later, brains were removed and macrophages sorted by MACS on CD11B beads as described above.
We utilized the Csf1r inhibitor PLX5622 in chow, to eliminate irradiation-damaged, yet still viable, microglia. Mice were given BMT with UBC-GFP bone marrow with or without head covering during irradiation, followed by 1 week of recovery, 2 weeks of chow containing PLX5622, and finally 6 weeks of recovery on standard chow.
Our third model (see Example 2) was designed to take advantage of the synergistic effect on engraftment we had observed with the combination of CNS irradiation and Csf1r deletion in microglia. Instead of Csf1r deletion using our genetic model, we utilized the Csf1r inhibitor PLX5622 in chow, to eliminate the irradiation-damaged, yet still viable, microglia. Mice were given BMT with UBC-GFP bone marrow with or without head covering during irradiation, followed by 1 week of recovery, 2 weeks of chow containing PLX5622, and finally 6 weeks of recovery on standard chow. […] Due to the robust level of engraftment in this model, we sorted GFP+ beMφ from whole body irradiated mice and GFP microglia from head covered mice for RNA-seq. Mice were injected i.p. with saline or LPS 6 hours prior to cell collection. Microglia and beMφ were FACS sorted from mice with or without head-covering, respectively, and then RNA-seq followed by differential expression analysis was performed (n=3 microglia samples, pooled from 3 total mice for each sample, and n=3 beMφ samples, pooled from 3 total mice for each sample; performed once).

SMILES: COc1ncc(F)cc1CNc1ccc(Cc2c[nH]c3ncc(C)cc23)c(F)n1 [PLX5622]
- GFP+ beMφ engraftment in the brain (BMT with head covering during irradiation, 2 weeks PLX5622 chow): minimal GFP+ beMφ engraftment
- repopulation of the CNS with endogenous microglia (BMT with head covering during irradiation, 2 weeks PLX5622 chow, then 6 weeks standard chow): effectively repopulated the CNS with endogenous microglia
- GFP+ beMφ engraftment in the brain (BMT with whole body irradiation, 2 weeks PLX5622 chow): robust engraftment of GFP+ beMφ; also recorded: robust engraftment of GFP+ beMϕ
- repopulation of microglia by beMφ (system of BMT and PLX5622 treatment for beMφ engraftment): substantial repopulation of microglia by beMϕ
- potentiation of engraftment of hematopoietic-derived macrophages into the brains of mice (used as part of a protocol that clears the microglial niche): can potentiate engraftment
